Experiment [1] has as its system Citrobacter freundii GN 99. In words: minimal inhibitory concentration against Cit. freundii GN 99. The format is cell-based. As to conditions: Citrobacter freundii, GN99; Cit. freundii GN 99; read-out: minimal inhibitory concentration.
The subject of experiment [2] is Proteus vulgaris IFO 3988. As to the kind of experiment: minimal inhibitory concentration against P. vulgaris IFO 3988. The format is cell-based. Conditions: Proteus vulgaris, IFO3988; P. vulgaris IFO 3988; read-out: minimal inhibitory concentration.
Experiment [3] has as its system P. vulgaris GN 4413. In words: minimal inhibitory concentration against P. vulgaris GN 4413. The format is cell-based. As to conditions: Proteus vulgaris, GN4413.
In experiment [4] the test system is P. rettgeri 8(TN0336). In words: minimal inhibitory concentration against P. rettgeri 8 (TN0336). The format is cell-based, Proteus rettgeri. As to conditions: Providencia rettgeri; P. rettgeri 8(TN0336); read-out: minimal inhibitory concentration.
Experiment [5] deals with Serratia TN 0024. As to the kind of experiment: minimal inhibitory concentration against Serratia TN 0024. The format is cell-based. As to conditions: TN0024; Serratia TN 0024; read-out: minimal inhibitory concentration.
Experiment [6] deals with E. coli 0-111. As to the kind of experiment: minimal inhibitory concentration against E. coli 0-111. Format: cell-based, Escherichia coli. Conditions: Escherichia coli, 0111; E. coli 0-111; read-out: minimal inhibitory concentration.
The subject of experiment [7] is Proteus morganii IFO 3168. As to the kind of experiment: minimal inhibitory concentration against P. morganii IFO 3168. Format: cell-based. Conditions: Morganella morganii, IFO3168; P. morganii IFO 3168; read-out: minimal inhibitory concentration.
Experiment [8] relates to Proteus rettgeri GN 4733. As to the kind of experiment: minimal inhibitory concentration against P. rettgeri GN 4733. The format is cell-based. Conditions: Providencia rettgeri, GN4733; P. rettgeri GN 4733; read-out: minimal inhibitory concentration.
In experiment [9] the test system is Klebsiella pneumoniae GN 3835. In words: minimal inhibitory concentration against K. pneumoniae GN 3835. The format is cell-based. As to conditions: Klebsiella pneumoniae, GN3835; K. pneumoniae GN 3835; read-out: minimal inhibitory concentration.
Experiment [10] deals with Proteus mirabilis GN 4359. As to the kind of experiment: minimal inhibitory concentration against P. mirabilis GN 4359. Conditions: Proteus mirabilis, GN4359; P. mirabilis GN 4359; read-out: minimal inhibitory concentration. Format: cell-based.
Experiment [11] relates to Enterobacter cloacae IFO 12937. In words: minimal inhibitory concentration against Ent. cloacae IFO 12937. The format is cell-based. As to conditions: Enterobacter cloacae; Ent. cloacae IFO12937; read-out: minimum inhibitory concentration.
Experiment [12] concerns Citrobacter freundii GN 1706. As to the kind of experiment: minimal inhibitory concentration against Cit. freundii GN 1706. Format: cell-based. Conditions: Citrobacter freundii, GN1706; Cit. freundii GN 1706; read-out: minimal inhibitory concentration.
In experiment [13] the test system is E. coli NIHJ. In words: minimal inhibitory concentration against E. coli NIHJ. As to conditions: Escherichia coli. Format: cell-based.
The test system of experiment [14] is E. coli T-7. In words: minimal inhibitory concentration against E. coli T-7. The format is cell-based. Conditions: Escherichia coli, T7.
For experiment [15], the system named is Serratia marcescens IFO 12648. In words: minimal inhibitory concentration against Serr. marcescens IFO 12648. Conditions: Serratia marcescens, IFO12648; Serr. marcescens IFO 12648; read-out: minimal inhibitory concentration. Format: cell-based.
Experiment [16] concerns Klebsiella pneumoniae DT. In words: minimal inhibitory concentration against K. pneumoniae DT. Format: cell-based. Conditions: Klebsiella pneumoniae; K. pneumoniae DT; read-out: minimal inhibitory concentration.

Converted amounts (≈) assume the structure as drawn.

Regarding `CO/N=C(\C(=O)NC1C(=O)N2C(C(=O)O)=C(CSc3nnnn3CCN(C)C)CSC12)c1csc(N)n1` (stereo not drawn) [(e), 7-[2-(2-Aminothiazol-4-yl)-2-(syn)-methoxyiminoacetamido]-3-[1-(2-N,N-dimethylaminoethyl)-1,2,3,4-tetrazol-5-yl]thiomethyl-3-cephem-4-carboxylic acid betaine], the MIC in experiment [1] was determined as 0.2 µg/mL (≈ 0.352 µM); in experiment [2] it was 0.2 µg/mL (≈ 0.352 µM); in experiment [3] it was 1.56 µg/mL (≈ 2.74 µM); in experiment [4] it was 0.024 µg/mL (≈ 0.0422 µM); in experiment [5] it was 0.78 µg/mL (≈ 1.37 µM); in experiment [6] it was 0.024 µg/mL (≈ 0.0422 µM). Besides, the MIC in experiment [7] stood at 0.2 µg/mL (≈ 0.352 µM); in experiment [8], 0.78 µg/mL (≈ 1.37 µM); in [9], 0.2 µg/mL (≈ 0.352 µM); in experiment [10] it was 0.39 µg/mL (≈ 0.686 µM); in [11], 6.25 µg/mL (≈ 11 µM); in experiment [12], 0.78 µg/mL (≈ 1.37 µM). Moreover, the MIC in experiment [13] worked out at 0.2 µg/mL (≈ 0.352 µM); in [14], 1.56 µg/mL (≈ 2.74 µM); in experiment [15], 1.56 µg/mL (≈ 2.74 µM); in experiment [16], 0.1 µg/mL (≈ 0.176 µM).

The values above are taken from patent US4278671A, “7-[2-(2-Aminothiazol-4-yl)-2-(syn)-methoxyiminoacetamido] cephalosporins” (Takeda Chemical Industries, Ltd., priority 1976, dated 1981).
